Source: patent US20230127944A1, “BROAD-SPECTRUM CARBAPENEMS” (priority 2019, published 2023)
In brackets after ≈: the same amount, converted by molar mass.

Key:
Assay type in all cases: cell-based
[1] = tested on: S. aureus ATCC 33591 (methicillin-resistant); experiment: broth microdilution MIC assay, S. aureus 33591; settings: Staphylococcus aureus, ATCC33591; S. aureus 33591, methicillin-resistant; read-out: MIC, S. aureus 33591
Protocol: (§1) To determine the ability of test compounds to inhibit the growth of bacterial strains, classic cell-based broth microdilution MIC assays were employed. MIC assays are performed according to CLSI methods except where otherwise noted (CLSI, 2011 and CLSI, 2009). The reference strains S. aureus ATCC 29213 (methicillin sensitive), S. aureus ATCC 33591 (methicillin-resistant), E. coli ATCC 25922 (wild-type/QC strain), P. aeruginosa ATCC 27853 (wild-type/QC strain), and the clinical isolate P. aeruginosa PA 8 were used to determine the ability of the exemplary carbapenem compounds to inhibit bacterial growth. An expanded panel of methicillin resistance S. aureus (MRSA) and Pseudomonas was also used to determine the ability of exemplary carbapenem compounds to inhibit bacterial growth across a broader representation of those species. To determine activity in MRSA and in addition to S. aureus ATCC 33591, S. aureus USA 300 and USA 600, some of the most common clones found to cause human infection, were also used. To further gauge the impact on the carbapenem compounds due to various resistance mechanisms in Pseudomonas, the following strains were included: P. aeruginosa 35151 (hyper-permeable strain), P. aeruginosa ΔmexAB-OprM (an efflux pump knockout), and P. aeruginosa Paβ-173 (a clinical isolate of reduced carbapenem susceptibility). Briefly, cryo-preserved bacterial cultures of clinical strains are streaked for isolation on appropriate agar medium, in this case Mueller Hinton II agar. Following incubation to allow formation of colonies, these plates are sealed with parafilm and stored refrigerated for up to two weeks. For preparation of assay inocula and to ensure low variability, at least 5 colonies are picked from the agar plates with an inoculating loop and aseptically transferred to a culture tube containing 3 mL of Mueller-Hinton Broth (supplemented with divalent cations to required levels based on Manufacturers' specification). The broth culture is grown for 3-5 hours at 37° C. with shaking at 200 rpm. Meanwhile, 2-fold serial dilutions of test compounds are conducted in a 96 well plate with a final volume of 75 μL per well at 2-fold the final desired concentration. After the dilution plates are set up the growing cultures are then diluted in a cuvette containing MH II broth and the optical density is measured at 600 nm. Inocula are diluted such that 75 μL of this culture in Mueller-Hinton Broth results in a starting bacterial concentration of 5×10^5 CFU/mL when added to the dilution plates. The plates are incubated 16-20 hours at 37° C. The MIC is read visually as the lowest concentration well with no bacterial growth.

[2] = tested on: S. aureus USA 300; experiment: broth microdilution MIC assay, S. aureus USA300; settings: Staphylococcus aureus; S. aureus USA300 (MRSA); read-out: MIC, S. aureus USA300
Protocol: as §1

[3] = tested on: S. aureus USA 600; experiment: broth microdilution MIC assay, S. aureus USA600; settings: Staphylococcus aureus; S. aureus USA600 (MRSA); read-out: MIC, S. aureus USA600
Protocol: as §1

[4] = tested on: E. coli ATCC 25922 (wild-type/QC strain); experiment: broth microdilution MIC assay, E. coli 25922; settings: Escherichia coli, ATCC25922; read-out: MIC, E. coli 25922
Protocol: as §1

[5] = tested on: P. aeruginosa ATCC 27853 (wild-type/QC strain); experiment: broth microdilution MIC assay, P. aeruginosa 27853; settings: Pseudomonas aeruginosa, ATCC27853; read-out: MIC, P. aeruginosa 27853
Protocol: as §1

[6] = tested on: P. aeruginosa 35151 (hyper-permeable strain); experiment: broth microdilution MIC assay, P. aeruginosa 35151; settings: Pseudomonas aeruginosa, read-out: MIC, P. aeruginosa 35151
Protocol: as §1

[7] = tested on: P. aeruginosa ΔmexAB-OprM (an efflux pump knockout); experiment: broth microdilution MIC assay, P. aeruginosa ΔmexAB-OprM; settings: Pseudomonas aeruginosa, read-out: MIC, P. aeruginosa ΔmexAB-OprM
Protocol: as §1

[8] = tested on: P. aeruginosa Paeβ-17; experiment: broth microdilution MIC assay, P. aeruginosa Paeβ-17; settings: Pseudomonas aeruginosa, read-out: MIC, P. aeruginosa Paeβ-17
Protocol: as §1

| Compound | MIC [1] | MIC [2] | MIC [3] | MIC [4] | MIC [5] | MIC [6] | MIC [7] | MIC [8] |
| --- | --- | --- | --- | --- | --- | --- | --- | --- |
| C[C@@H](O)[C@H]1C(=O)N2C(C(=O)O)=C(SC3CN([C@@H]4CCC[C@H](N)C4)C3)[C@H](C)[C@H]12 [Example 14, (4R,5S,6S)-3-((1-((1R,3S)-3-aminocyclohexyl)azetidin-3-yl)thio)-6-((R)-1-hydroxyethyl)-4-methyl-7-oxo-1-azabicyclo[3.2.0]hept-2-ene-2-carboxylic acid] | 1 to 4 µg/mL (≈ 2.53 to 10.1 µM) | 1 to 4 µg/mL (≈ 2.53 to 10.1 µM) | 1 to 4 µg/mL (≈ 2.53 to 10.1 µM) | < 1 µg/mL | 1 to 4 µg/mL (≈ 2.53 to 10.1 µM) | < 1 µg/mL | 1 to 4 µg/mL (≈ 2.53 to 10.1 µM) | 8 to 32 µg/mL (≈ 20.2 to 80.9 µM) |
| C[C@@H](O)[C@H]1C(=O)N2C(C(=O)O)=C(SC3CN([C@H]4CCC[C@@H](N)C4)C3)[C@H](C)[C@H]12 [Example 15, (4R,5S,6S)-3-((1-((1S,3R)-3-aminocyclohexyl)azetidin-3-yl)thio)-6-((R)-1-hydroxyethyl)-4-methyl-7-oxo-1-azabicyclo[3.2.0]hept-2-ene-2-carboxylic acid] | 8 to 32 µg/mL (≈ 20.2 to 80.9 µM) | 1 to 4 µg/mL (≈ 2.53 to 10.1 µM) | 1 to 4 µg/mL (≈ 2.53 to 10.1 µM) | < 1 µg/mL | 1 to 4 µg/mL (≈ 2.53 to 10.1 µM) | < 1 µg/mL | 1 to 4 µg/mL (≈ 2.53 to 10.1 µM) | 8 to 32 µg/mL (≈ 20.2 to 80.9 µM) |
| C[C@@H](O)[C@H]1C(=O)N2C(C(=O)O)=C(SC3CN([C@@H]4CCC[C@@H](N)C4)C3)[C@H](C)[C@H]12 [Example 16, (4R,5S,6S)-3-((1-((1R,3R)-3-aminocyclohexyl)azetidin-3-yl)thio)-6-((R)-1-hydroxyethyl)-4-methyl-7-oxo-1-azabicyclo[3.2.0]hept-2-ene-2-carboxylic acid] | 8 to 32 µg/mL (≈ 20.2 to 80.9 µM) | 1 to 4 µg/mL (≈ 2.53 to 10.1 µM) | 1 to 4 µg/mL (≈ 2.53 to 10.1 µM) | < 1 µg/mL | 8 to 32 µg/mL (≈ 20.2 to 80.9 µM) | < 1 µg/mL | 1 to 4 µg/mL (≈ 2.53 to 10.1 µM) | 8 to 32 µg/mL (≈ 20.2 to 80.9 µM) |
| C[C@@H](O)[C@H]1C(=O)N2C(C(=O)O)=C(SC3CN(Cc4cnc(N)nc4)C3)[C@H](C)[C@H]12 [Example 22, (4R,5S,6S)-3-((1-((2-aminopyrimidin-5-yl)methyl)azetidin-3-yl)thio)-6-((R)-1-hydroxyethyl)-4-methyl-7-oxo-1-azabicyclo[3.2.0]hept-2-ene-2-carboxylic acid] | 8 to 32 µg/mL (≈ 19.7 to 78.9 µM) | 1 to 4 µg/mL (≈ 2.47 to 9.86 µM) | 1 to 4 µg/mL (≈ 2.47 to 9.86 µM) | < 1 µg/mL | 8 to 32 µg/mL (≈ 19.7 to 78.9 µM) | < 1 µg/mL | 1 to 4 µg/mL (≈ 2.47 to 9.86 µM) | > 32 µg/mL |
| C[C@@H](O)[C@H]1C(=O)N2C(C(=O)O)=C(SC3CN(Cc4ccc(N)nc4)C3)[C@H](C)[C@H]12 [Example 23, (4R,5S,6S)-3-((1-((6-aminopyridin-3-yl)methyl)azetidin-3-yl)thio)-6-((R)-1-hydroxyethyl)-4-methyl-7-oxo-1-azabicyclo[3.2.0]hept-2-ene-2-carboxylic acid] | 8 to 32 µg/mL (≈ 19.8 to 79.1 µM) | 1 to 4 µg/mL (≈ 2.47 to 9.89 µM) | 1 to 4 µg/mL (≈ 2.47 to 9.89 µM) | < 1 µg/mL | 8 to 32 µg/mL (≈ 19.8 to 79.1 µM) | < 1 µg/mL | 1 to 4 µg/mL (≈ 2.47 to 9.89 µM) | > 32 µg/mL |
| C[C@@H](O)[C@H]1C(=O)N2C(C(=O)O)=C(S[C@@H]3CCN(Cc4cnc(N)nc4)C3)[C@H](C)[C@H]12 [Example 24, (4R,5S,6S)-3-(((R)-1-((2-aminopyrimidin-5-yl)methyl)pyrrolidin-3-yl)thio)-6-((R)-1-hydroxyethyl)-4-methyl-7-oxo-1-azabicyclo[3.2.0]hept-2-ene-2-carboxylic acid] | 8 to 32 µg/mL (≈ 19.1 to 76.3 µM) | 1 to 4 µg/mL (≈ 2.38 to 9.54 µM) | 1 to 4 µg/mL (≈ 2.38 to 9.54 µM) | < 1 µg/mL | 8 to 32 µg/mL (≈ 19.1 to 76.3 µM) | < 1 µg/mL | 1 to 4 µg/mL (≈ 2.38 to 9.54 µM) | > 32 µg/mL |
